The test system of data set [1] is IL-2 production in Jurkat E6-1 cells. Briefly: IL-2 production in activated Jurkat cells. The class given is cell-based, human. The conditions noted are these: activated IL-2 production in Jurkat T cells; relative to the activity of 5 μM RT03S (100%). The procedure:
The T-cell lymphoma cell lines, Jurkat E6-1 (CD28+/CD4+) cells (152-TIB) and HUT 78 (CD28-/CD4+) cells (TIB-161) (ATCC, Rockville, Md.) were maintained in RPMI-10 (RPMI-1640 medium containing […] HEPES buffer, pH 7.4, 10% fetal calf serum (FCS) (Hyclone, Logan, Utah), 1% L-glutamine and 1% penicillin/streptomycin).
(§1) Prior to the addition of human peripheral T-cells or T-cell lymphoma cell lines (0.2-0.3×10^6), duplicate 96-well microtitre plates were pre-coated with purified anti-CD3 monoclonal antibody (mAb) (6.25-200 ng/well) (clone HIT 3a, Pharmingen, San Diego, Calif.) and washed twice with cold phosphate-buffered saline, pH 7.4 (PBS). Anti-CD3 mAb-treated T-cells were further activated by the addition of 2 ng phorbol 12-myristate 13-acetate (PMA) (Calbiochem, La Jolla, Calif.) and incubated for 48 h at 37° C. Anti-CD3/PMA-activated T-cells were treated with 1-20 μM CD28-specific and control oligonucleotides immediately following activation and re-treated 24 h later. T-cells from one duplicate plate was used for immunofluorescence analysis and the supernatants used for cytokine studies and the second plate was used for T-cell proliferation analysis.
Cell-derived human cytokine concentrations were determined in cell supernatants from the first duplicate microplate. Mitogen-induced changes in interleukin-2 (IL-2) levels were determined using a commercially available ELISA kit (R & D systems Quantikine kit, Minneapolis, Minn.) or by bioassay using the IL-2-dependent cell line, CTLL-2 (ATCC, Rockville, Md.). Mitogen-induced changes in interferon-gamma and interleukin-8 (IL-8) levels were determined by ELISA using kits from Endogen (Cambridge, Mass.) and R & D systems (Quantikine kit, Minneapolis, Minn.) respectively. All ELISA results were expressed as pg/ml and the CTLL-2 bioassay as counts per minute representing the IL-2 -dependent cellular incorporation of ^3 H-thymidine (ICN, Costa Mesa, Calif.) by CTLL-2 cells.
(§2) Peripheral blood mononuclear cells (PBMCs) were isolated from healthy donors by density gradient centrifugation followed by T cell enrichment using Lymphokwik (One Lambda). Contaminating monocytes were removed by adherence to plastic. Purified T cells were >99% CD2^+, <1% HLA-DR^+ and <5% CD25^+. Jurkat E6-1 (CD28^+ /CD4^+) T cells and HUT 78 (CD28^- /CD4^+) T cells and the monocytic cell line, THP were obtained from ATCC. Cells were cultured at a concentration of 0.2-0.3×10^6 /well and activated with plate-immobilized anti-CD3 monoclonal antibody (mAb) (HIT3A 0.25 μg/ml) (Pharmingen) and 2 ng phorbol 12-myristate 13-acetate (PMA) (Calbiochem).
Proliferative responses were assessed by measuring ^3 H-thymidine (1 μCi, ICN) incorporation for the last 16 h of each assay. Cells were harvested onto filters and DNA synthesis was measured following scintillation counting on a Wallac Betaplate counter. Cytokine concentrations in culture supernatants were assayed using ELISA kits for IL-2, IL-8 (R & D Systems) and IFN-γ (Endogen) or by bioassay using the IL-2 -dependent cell line, CTLL-2 (ATCC).

The subject of data set [2] is CD28 expression in anti-CD3/PMA-activated human T-cells. The data set is described as follows: Activation-induced CD28 surface expression, immunofluorescence analysis. Format: cell-based. The conditions noted are these: for Relative inhibition of expression, CD28: anti-CD3/PMA-activated peripheral human T cells, relative to the activity of 5 μM RT03S (100%); for loss of inhibitory activity relative to RT03S: G to C substitutions within both four G regions. The method, then:
as §1
Following activation, […] cell supernatant from the first duplicate microplate was transferred to another microplate for analysis of cell-derived cytokine production. The remaining cells were washed twice with isotonic saline solution, pH 7.4 (Becton Dickinson, Mansfield, Mass.) and resuspended in […] isotonic saline solution and split into two samples. One sample aliquot was co-stained with either PE-CD28/FITC-CD4 or PE-CD54/FITC-CD25 mAb and non-specific fluorescence was assessed by staining the second aliquot with PE/FITC-labeled isotype-matched control monoclonal antibody. All fluorescence-labeled monoclonal antibodies were obtained from Becton Dickinson (San Jose, Calif.). Incubations were performed in the dark at 4° C. for 45 min using saturating mAb concentrations. Unincorporated label was removed by washing in PBS prior to the analysis with a FACScan flow cytometer (Becton Dickinson). Antigen density was indirectly determined in gated live cells and expressed as the mean channel of fluorescence (MCF). Surface expression of specific antigens (CD54, CD25) was represented as the mean channel shift (MCS) obtained by subtracting the MCF of FITC- or PE-labeled isotype-matched (IgG1) control mAb-stained cells from the MCF of FITC- or PE-labeled antigen-specific mAb stained cells. Alternatively, surface expression of the CD4^+ -subset of cells stained with CD28 mAb was determined by subtracting the MCF of […]. The viability of control untreated and oligonucleotide-treated cells were determined in each batch of all oligonucleotides in multiple donors by staining with the vital dye, propidium iodide (5 μg/ml final concentration). The percentage of live cells which excluded propidium iodide was determined by flow cytometry and was >90% (range 90-99%) following treatment with all batches of all oligonucleotides at a dose range of 1-20 μM (FIG. 2).
as §2
Cells were co-stained with either PE-CD28/FITC-CD4 or PE-CD54/FITC-CD25 mAb or with PE/FITC-labeled isotype-matched controls (Becton Dickinson). Cell surface antigen density (CD28, CD54, CD25) was confirmed by flow cytometry (FACScan, Becton Dickinson). Viability was assessed by propidium iodide (5 μg/ml) exclusion in control untreated and oligo-treated CD4^+ cells from multiple donors and was typically >90% (range 90-99%) following 48 h incubation with 1-10 μM of each batch of all oligonucleotides.

Data set [3] concerns the target CD3 (T-cell receptor/CD3 complex) on human T cells (human).
For data set [4] the target is unchanged. This is another data set of the same source.

As to “RT05S: TTG GAG GGG GAG GAG GGG, SEQ ID NO: 51 (DNA TTGGAGGGGGAGGAGGGG; chemistry not given here)”, in data set [1], the “Relative inhibition of expression, IL-2” value is 100%. Besides, the “Relative inhibition of expression, CD28” value in data set [2] was 136%.

Take “RT06S: TTC CAG CCC CTC CTC CCC, SEQ ID NO: 64 (DNA TTCCAGCCCCTCCTCCCC; chemistry not given here)”: the “Relative inhibition of expression, IL-2” value in data set [1] is given as 22%. The “Relative inhibition of expression, CD28” value in data set [2] is 29%.

Take “RT09S: TTG GAG GGG GAG GTG GGG, SEQ ID NO: 52 (DNA TTGGAGGGGGAGGTGGGG; chemistry not given here)”: the “Relative inhibition of expression, IL-2” value in data set [1] is recorded as 100%. In data set [2], the “Relative inhibition of expression, CD28” value was found to be 126%.

With “RT10S: TTG GAG GCG GTG GTG GCG, SEQ ID NO: 53 (DNA TTGGAGGCGGTGGTGGCG; chemistry not given here)”, the “Relative inhibition of expression, IL-2” value in data set [1] turned out to be 38%. The “loss of inhibitory activity relative to RT03S” value in data set [2] (range over the named group) was 56-69%. For the same substance, in data set [2], the “Relative inhibition of expression, CD28” value came out at 31%.

Consider “RT11S: GGG GAG GAG GGG CTG GAA, SEQ ID NO: 50, sense sequence, upstream region of the CD28 gene (sense GGGGAGGAGGGGCTGGAA; chemistry not given here)”, for which the “Relative inhibition of expression, IL-2” value in data set [1] is on record as 100%. In data set [2], the “Relative inhibition of expression, CD28” value is recorded as 100%.

For “RT18S: GGG GTG GTG GGG, SEQ ID NO: 57, core 12 mer sequence (DNA GGGGTGGTGGGG; chemistry not given here)”, in data set [1], the “Relative inhibition of expression, IL-2” value is listed as 120%. The “Relative inhibition of expression, CD28” value in data set [2] is on record as 103%.

For the substance “RT19S: G GGG TTG GGG, SEQ ID NO: 58 (DNA GGGGTTGGGG; chemistry not given here)”, in data set [1], the “Relative inhibition of expression, IL-2” value came to 89%. Moreover, the “Relative inhibition of expression, CD28” value in data set [2] came to 30%. Moreover, the “reduction of relative bioactivity” value in data set [2] (insertion or deletion of bases separating the sets of G's, range over the named group) is listed as 52-70%.

As to “RT23S: TTG GAGCCG GTG GTG G, SEQ ID NO: 56 (DNA TTGGAGCCGGTGGTGG; chemistry not given here)”, the “Relative inhibition of expression, IL-2” value in data set [1] came out at 57%. For the same substance, in data set [2] (range over the named group), the “loss of inhibitory activity relative to RT03S” value is reported as 56-69%. In addition, in data set [2], the “Relative inhibition of expression, CD28” value worked out at 38%.

On to “RT24S: TTG GAG CCG GTG GTG GCC, SEQ ID NO: 54 (DNA TTGGAGCCGGTGGTGGCC; chemistry not given here)”, for which the “Relative inhibition of expression, IL-2” value in data set [1] was found to be 57%. The “loss of inhibitory activity relative to RT03S” value in data set [2] (range over the named group) is given as 56-69%. The “Relative inhibition of expression, CD28” value in data set [2] was found to be 40%.

For the substance “RT25S: TTG GAG GGG CTC CTC GGG, SEQ ID NO: 55 (DNA TTGGAGGGGCTCCTCGGG; chemistry not given here)”, the “Relative inhibition of expression, IL-2” value in data set [1] was found to be 25%. Further, the “loss of inhibitory activity relative to RT03S” value in data set [2] (range over the named group) is 56-69%. Besides, in data set [2], the “Relative inhibition of expression, CD28” value is recorded as 44%.

Take “anti-CD3 monoclonal antibody (clone HIT 3a, Pharmingen)”: in data set [3], the surface expression of CD28 (immunofluorescence, MCS) was 150 MCS. In data set [4], this substance returned an incorporation of 3H-thymidine (T-cell proliferation) (counts per minute) of 302000.
